“Also recorded” adds a separate entry of the source.
Experiments:
[1] = target: T1, CatC (Homo sapiens, UniProt P53634); experiment: E-64 inhibition of CatC activity; type: biochemical; conditions: compared with literature ~500 μM
[2] = target: T1, CatC; conditions: only at high concentrations; cited from earlier work
[3] = system: cathepsin F; experiment: 50 mM acetate buffer pH 5 with 1 mM EDTA and 1 mM DTT; conditions: up to 24 hours
[4] = system: cathepsin F (CatF); experiment: cathepsin F in 50 mM acetate buffer pH 5 with 1 mM EDTA and 1 mM DTT; conditions: up to 24 hours
[5] = system: cathepsin H (CatH); experiment: cathepsin H in 50 mM acetate buffer pH 5 with 1 mM EDTA and 1 mM DTT; conditions: up to 24 hours
[6] = system: cathepsin L (CatL); experiment: cathepsin L in 50 mM acetate buffer pH 5 with 1 mM EDTA and 1 mM DTT; conditions: up to 8 hours
[7] = system: cathepsin A (CatA); experiment: cathepsin A; conditions: 37°C, up to 8 hours
[8] = system: cathepsin C (CatC); experiment: cathepsin C; conditions: 37°C, up to 24 hours
[9] = system: cathepsin B (CatB); experiment: cathepsin B in 50 mM acetate buffer pH 5 with 1 mM EDTA and 1 mM DTT; conditions: up to 8 hours

T1 sequence (P53634 25-134 limits assumed): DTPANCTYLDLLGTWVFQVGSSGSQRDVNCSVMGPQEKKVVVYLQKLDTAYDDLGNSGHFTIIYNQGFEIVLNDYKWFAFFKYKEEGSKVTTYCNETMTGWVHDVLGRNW
T1 sequence (P53634 231-394 limits assumed): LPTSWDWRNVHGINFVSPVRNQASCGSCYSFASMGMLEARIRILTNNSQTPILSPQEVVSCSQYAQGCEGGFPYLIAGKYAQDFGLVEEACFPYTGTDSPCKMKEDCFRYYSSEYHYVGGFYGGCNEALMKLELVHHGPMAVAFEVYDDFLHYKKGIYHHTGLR
T1 sequence (P53634 395-463 limits assumed): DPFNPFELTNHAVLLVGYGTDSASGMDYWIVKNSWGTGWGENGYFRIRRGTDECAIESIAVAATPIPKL

Compound	not cleaved [4]	fragment found [5]	fragment found [6]	not cleaved [8]	not cleaved [9]	fragment found [7]	fragment found [9]	other results
CC(C)C[C@H](NC(=O)[C@H]1O[C@@H]1C(=O)O)C(=O)NCCCCN=C(N)N (relative stereo) [E-64, L-trans-Epoxysuccinyl-leucylamido(4-guanidino) butane]								E-64 inhibition of CatC activity observed by the authors [1]: activity inhibition at much-reduced concentration; concentration at which E-64 inhibits CatC [2]: ~ 500 μM
AKAKTDHGAEIVYK	no proteolytic digestion	TDHGAEIVYK; also recorded: DHGAEIVYK	IVYK and TDHGAEIVY and HGAEIVYK and GAEIVYK and AKTDHGAEIVYK and AKAKTDHGAEIVY			AKAKTDHGAEIVY, 0.5h; also recorded: AKAKTDHGAEIV; also recorded: AKAKTDHGAEI; also recorded: KTDHGAEIV; also recorded: AKTDHGAEIV; also recorded: KTDHGAEI; also recorded: AKTDHGAEI		not cleaved [3]: no proteolytic digestion; fragment found [8]: TDHGAEIVYK
AKAKTDHGAEIVYK (L-isoAsp variant)		TDHGAEIVYK	AKAKTDHGAEIVY and IVYK and AKTDHGAEIVYK	no TDHGAEIVYK after 24 h		AKAKTDHGAEIVY, 0.5h; also recorded: AKAKTDHGAEIV; also recorded: AKAKTDHGAEI		
SEMRLEKDRFSVNL							SEMRLEKDRF and SEMRLEKDR and LEKDRF and EKDRF and KDRF	fragment found [4]: SEMRLE; also recorded: KDRFSVNL; also recorded: SEMR, minor, longer time-points
SEMRLEKDRFSVNL (D-Asp variant)					no cleavage C-terminal to isomerized Asp		SEMRLEKDRF; also recorded: SEMRLEKDR	
SEMRLEKDRFSVNL (L-isoAsp variant)					no cleavage C-terminal to isomerized Asp		SEMRLEKDRFS and SEMRLEKDRF and SEMRLEKDR and KDRF	

More lines, main results first:

not cleaved [4]	fragment found [5]	fragment found [6]	not cleaved [8]	not cleaved [9]	Compound	fragment found [7]	fragment found [9]	other results
no proteolytic digestion	TDHGAEIVYK	IVYK and AKTDHGAEIVYK and AKAKTDHGAEIVY	no TDHGAEIVYK after 24 h		AKAKTDHGAEIVYK (D-Asp variant)	AKAKTDHGAEIVY, 0.5h; also recorded: AKAKTDHGAEIV; also recorded: AKAKTDHGAEI		
no proteolytic digestion	TDHGAEIVYK	IVYK and AKTDHGAEIVYK and AKAKTDHGAEIVY	no TDHGAEIVYK after 24 h		AKAKTDHGAEIVYK (D-isoAsp variant)	AKAKTDHGAEIVY, 0.5h; also recorded: AKAKTDHGAEIV; also recorded: AKAKTDHGAEI		fragment found [8]: IVYK
				no cleavage C-terminal to isomerized Asp	SEMRLEKDRFSVNL (D-isoAsp variant)		SEMRLEKDRF; also recorded: SEMRLEKDR	

From article PMC10449060 (Analysis & sensing, 2022)
